Source: US8551999B2, “Heterocyclic compound and pharmaceutical composition thereof” (Otsuka Pharmaceutical Co., Ltd., priority 2007, dated 2013)
Where a name gives a salt, the structure may show the parent alone.

Legend:
[1] = tested on: human hepatic cancer cells (HuH-7); experiment: Antiproliferative effect on cancer cells (in vitro), sulforhodamine B method, HuH-7; type: cell-based; conditions: HuH-7 cells, 5 days incubation with test compound
Description: (§1) Growth inhibition of human hepatic cancer cells (HuH-7) was determined by the sulforhodamine B method based on the method of Skehan P. et al. (J Natl Cancer Inst. 1990 Jul. 4; 82(13): 1107-12). In the study, HuH-7 cells were seeded on DMEM medium containing 10% fetal bovine serum in a 96-well microplate. After 24-hour incubation at 37° C. in the presence of 5% carbon dioxide, the test compound was added and the cells were incubated for another 5 days. After incubation, a trichloroacetic acid solution was added to yield the final concentration of 10% and the cells were left to stand at 4° C. for 1 hour to fix. Then, the cells were washed with water to remove the medium and trichloroacetic acid and dried in the air. The dried cells were stored at 4° C. until they were stained with sulforhodamine B. To each well, 1% acetic acid solution containing 0.4% sulforhodamine B was added and left to stand for 20 to 30 minutes at room temperature. After discarding the supernatant, each well was washed with 1% acetic acid solution, and 10 mM Tris ([…]) solution was added while stirring to elute the dye taken into the cells. Then, the optical density was determined at the measurement wavelength of 492 nm and the reference wavelength of 690 nm, and the difference was calculated. The cell growth activity in each well was defined as the value determined by subtracting the OD in the control well not containing cells (the difference in absorbance between 492 nm and 690 nm) from that in the test well.
(§2) The 50% inhibitory concentration (IC50 (nM)) of the test compound was determined by comparing the cell growth activity in the well containing the test compound with that of the control not containing the test compound.

[2] = tested on: human pancreatic cancer cells (HPAC); experiment: Antiproliferative effect on cancer cells (in vitro), sulforhodamine B method, HPAC; type: cell-based; conditions: 5 days incubation with test compound
Description: as §1, §2
The growth inhibition on human pancreatic cancer cells (HPAC) was also determined by the above method using HPAC instead of HuH-7 and RPMI 1640 medium containing 10% fetal bovine serum instead of the DMEM medium containing 10% fetal bovine serum.

[3] = tested on: human chronic myelocytic leukemia cells (KU812); experiment: Antiproliferative effect on cancer cells (in vitro), WST-8 assay, KU812; type: cell-based; conditions: 5 days incubation with test compound
Description: The growth inhibition on human chronic myelocytic leukemia cells (KU812) was determined by a WST-8 assay according to the method of Singh A K, et al. (Cancer Lett. 1996 Oct. 1; 107(1): 109-15.). In this method, KU812 cells were seeded in RPMI 1640 medium containing 10% fetal bovine serum in a 96-well microplate and incubated at 37° C. for 24 hours in the presence of 5% carbon dioxide. Then, the test compound was added and the cells were incubated for another 5 days. After incubation, 15 μL of 5 mM WST-8 (2-(2-methoxy-4-nitrophenyl)-3-(4-nitrophenyl)-5-(2,4-disulfenyl)-2H-tetrazolium, monosodium salt) was added and the cells were incubated for 2 hours. After the 2-hour incubation, 15 μL of 1% SDS (sodium dodecyl sulfate) was added and the optical density was determined at the measurement wavelength of 450 nm and the reference wavelength of 630 nm, and the difference was calculated. The cell growth activity in each well was defined as the value determined by subtracting the OD in the control well not containing cells (the difference in absorbance between 492 nm and 690 nm) from that in the test well.
as §2

[4] = tested on: LI90 cells, a human hepatic stellate cell line; experiment: Inhibitory effect on collagen synthesis (in vitro); type: cell-based; conditions: in the presence of recombinant human TGF-β1, 3H-proline labelled collagen in supernatant
Description: Inhibitory Effect on Collagen Synthesis (In Vitro)
LI90 cells, a human hepatic stellate cell line, were suspended in DMEM (Dulbecco's modified eagle medium) supplemented with 10% inactivated FBS (fetal bovine serum), seeded on a 12-well plate and cultured in a CO2 incubator (preset temperature: 37° C., preset CO2 concentration: 5%). After being cultured for 24 hours, the cells were washed with D-PBS (Dulbecco's phosphate buffered saline), placed in MEM (Eagle's minimum essential medium) supplemented with 0.1% inactivated FBS and then cultured in a CO2 incubator. After being cultured for 3 days, the cells were again washed with D-PBS, placed in MEM (Eagle's minimum essential medium) supplemented with 0.1% inactivated FBS and treated with or without a test compound in the presence of […] recombinant human TGF-β1 (transforming growth factor-β1) in a CO2 incubator for 16 hours. After the incubation, the cells were washed with D-PBS and the medium was replaced with MEM containing 0.25 mM ascorbate. A radio-labeled compound, ^3H-proline, was then added to the culture medium to radio-label the collagen proteins produced. After being cultured for 24 hours, the supernatant was collected and the collagen proteins were extracted from the supernatant as acid-soluble fractions. The amount of collagen produced was determined by measuring the radioactivity contained in the fractions. A concentration of test compound that produced 50% inhibition [IC50 value (nM)] on collagen synthesis was calculated by comparing the radioactivity count in a supernatant of test-compound-treated cells with that of untreated cells (control).

STAT3 = experiment: Inhibitory effect on IL-6-induced STAT3 phosphorylation in human myeloma cells (in vitro); type: cell-based; conditions: U266B1 human myeloma cells, IL-6 1 ng/mL, pSTAT3 (Y705) by flow cytometry
Description: The inhibitory effect of the test compound on phosphorylation of STAT3 (signal transducer and activator of transcription-3) in human myeloma cells ([…]) induced by interleukin-6 (IL-6) was examined using the modified method of Tochizawa S. et al. (J Immunol Methods. 2006 Jun. 30; 313(1-2): 29-37). In the study, U266B1 cells were seeded in an RPMI 1640 medium containing 10% fetal bovine serum (FBS) in a 12-well plate and incubated at 37° C. for 2 hours in the presence of carbon dioxide. After incubation, IL-6 was added to yield the concentration of 1 ng/mL and the cells were incubated at 37° C. for 15 minutes in the presence of 5% carbon dioxide. After fixation of the cells by the addition of a buffer containing formaldehyde (Lyse/Fix Buffer, BD Biosciences) at room temperature for 10 minutes, the suspension was centrifuged to remove the supernatant and the cells were treated with ice-cold methanol for 10 minutes to improve the permeability of the cell membrane. The cells were centrifuged to remove methanol and washed twice with Dulbecco's phosphate buffered saline (D-PBS) containing 2% fetal bovine serum (FBS). A fluorescence-labeled anti-phosphorylated STAT3 (pSTAT3) antibody (Alexa Fluor 488-labeled anti-pSTAT3 (Y705) antibody, BD Biosciences) was added for staining in an ice bath for 30 minutes.
The cells were washed once with 2% FBS-containing D-PBS and suspended in 2% FBS-containing D-PBS, and the fluorescence intensity was determined using a flow cytometer (FACS Sort, BD Biosciences). The ratio of fluorescence intensity in the test group to the control group (T/C) was determined from the difference in the geometric mean of pSTAT3 fluorescence intensity between the test compound group of each concentration and the non-stimulated control group according to the following equation by defining the difference in the geometric mean of pSTAT3 fluorescence intensity between the IL-6 induced control and the non-stimulated control as 100%. T/C(%)=([…] of pSTAT3 fluorescence intensity in the cells treated with the test compound—geometric mean of pSTAT3 fluorescence intensity in non-stimulated control)/(geometric mean of fluorescence intensity of IL-6-induced pSTAT3 in the control−geometric mean of pSTAT3 fluorescence intensity in non-stimulated control)×100.
The concentration of the test compound inhibiting phosphorylation of STATS at 50% (IC50; concentration of the test compound corresponding to 50% T/C(%)) was determined using T/C(%) values at the respective concentrations and defined as the index for the inhibitory activity.

Structure (SMILES) | melting point [°C] | IC50 ([1]; Homo sapiens, 120 h) [nM] | IC50 ([2]; Homo sapiens, 120 h) [nM] | IC50 ([3]; Homo sapiens, 120 h) [nM] | IC50 [4] [nM] | IC50 (STAT3) [nM] | IC50 [1] [nM] | IC50 [2] [nM] | IC50 [3] [nM]
COc1ccc(S(=O)(=O)N(C)c2ccc(Oc3ccc4cc(C(=O)N5CCN(Cc6ccc(OCC(F)(F)F)cc6)CC5)n(C)c4c3)nc2)cc1.Cl [Example 73, 4-Methoxy-N-methyl-N-[6-(1-methyl-2-{4-[4-(2,2,2-trifluoro-ethoxy)benzyl]piperazine-1-carbonyl}-1H-indol-6-yloxy)pyridin-3-yl]benzenesulfonamide hydrochloride] | 213.4 to 214.1 | < 10 | < 70 | < 2 |  |  |  |  | 
Br.CC(C)Oc1ccc(CN2CCN(C(=O)c3cc4ccc(Oc5ccc(NC(=O)c6ccc(C(F)(F)F)cc6Cl)cn5)cc4n3C)CC2)cc1 [Example 253, 2-Chloro-N-(6-{2-[4-(4-isopropoxybenzyl)piperazine-1-carbonyl]-1-methyl-1H-indol-6-yloxy}pyridin-3-yl)-4-trifluoromethylbenzamide hydrobromide] | 237.2 to 238.2 | < 10 | < 70 | < 2 | < 10 |  |  |  | 
COc1ccc(CN2CCN(C(=O)c3cc4cc(Oc5ccc(N(C)C(=O)c6ccc(C(F)(F)F)cc6)cn5)ccc4n3C)CC2)cc1 [Example 338, N-(6-{2-[4-(4-Methoxybenzyl)piperazine-1-carbonyl]-1-methyl-1H-indol-5-yloxy}pyridin-3-yl)-N-methyl-4-trifluoromethylbenzamide maleate] |  | < 10 | < 70 | < 2 |  | < 10 |  |  | 
CCOc1ccc(CN2CCN(C(=O)c3cc4cc(Oc5ccc(N(C)C(=O)c6ccc(C(F)(F)F)cc6)c(C)n5)ccc4n3C)CC2)cc1 [Example 368, N-(6-{2-[4-(4-Ethoxybenzyl)piperazine-1-carbonyl]-1-methyl-1H-indol-5-yloxy}-2-methylpyridin-3-yl)-h=methyl-4-trifluoromethyl-benzamide hydrobromide] |  |  |  |  |  |  | < 10 | < 70 | < 2
CCc1ccc(CN2CCN(C(=O)c3cc4cc(Oc5ccc(N(C)C(=O)c6ccc(C(F)(F)F)cc6)cn5)ccc4n3C)CC2)cc1.O=C(O)C(=O)O [Example 391, N-(6-{2-[4-(4-Ethylbenzyl)piperazine-1-carbonyl]-1-methyl-1H-indol-5-yloxy}pyridin-3-yl)-N-methyl-4-trifluoromethylbenzamide oxalate] | 167 to 169 | < 10 | < 70 | < 2 |  |  |  |  | 

More lines, now with the values ahead:

melting point [°C] | IC50 ([1]; Homo sapiens, 120 h) [nM] | IC50 ([2]; Homo sapiens, 120 h) [nM] | IC50 ([3]; Homo sapiens, 120 h) [nM] | IC50 [4] [nM] | IC50 (STAT3) [nM] | IC50 [1] [nM] | IC50 [2] [nM] | IC50 [3] [nM] | Structure (SMILES)
157 to 159 | < 10 | < 70 | < 2 | < 10 |  |  |  |  | CC(C)Oc1ccc(CN2CCN(C(=O)c3cc4cc(Oc5ccc(N(C)C(=O)c6ccc(C(F)(F)F)cc6)cn5)ccc4n3C)CC2)cn1.O=C(O)/C=C\C(=O)O [Example 424, N-(6-{2-[4-(6-Isopropoxypyridin-3-ylmethyl)piperazine-1-carbonyl]-1-methyl-1H-indol-5-yloxy}pyridin-3-yl)-N-methyl-4-tri-fluoromethylbenzamide maleate]
 |  |  |  | < 10 |  | < 10 | < 70 | < 2 | Cc1c(Oc2ccc(N(C)C(=O)c3ccc(C(F)(F)F)cc3)cn2)ccc2c1cc(C(=O)N1CCN(Cc3ccc(C(C)C)cc3)CC1)n2C [Example 428, N-(6-{2-[4-(4-Isopropylbenzyl)piperazine-1-carbonyl]-1,4-dimethyl-1H-indol-5-yloxy}pyridin-3-yl)-N-methyl-4-trifluoro-methylbenzamide hydrobromide]
225 to 226.4 | < 10 | < 70 | < 2 | < 10 | < 10 |  |  |  | Br.CN(C(=O)c1ccc(C(F)(F)F)cc1)c1ccc(Oc2ccc3cc(C(=O)N4CCN(Cc5ccc(OCC(F)(F)F)cc5)CC4)n(C)c3c2)nc1 [Example 436, N-Methyl-N-[6-(1-methyl-2-{4-[4-(2,2,2-trifluoroethoxy)benzyl]-piperazine-1-carbonyl}-1H-indol-6-yloxy)pyridin-3-yl]-4-tri-fluoromethylbenzamide hydrobromide]
220 to 220.8 | < 10 | < 70 | < 2 |  |  |  |  |  | Cn1c(C(=O)N2CCN(Cc3ccc(-c4csnn4)cc3)CC2)cc2ccc(Oc3ccc(NC(=O)c4ccc(C(F)(F)F)cc4)cn3)cc21 [Example 571, N-(6-{1-Methyl-2-[4-(4-[1,2,3]thiadiazol-4-ylbenzyl)piperazine-1-carbonyl]-1H-indol-6-yloxy}pyridin-3-yl)-4-trifluoromethyl-benzamide]
